Measurements published in patent US20220054548A1, “MIRNA FOR USE IN THERAPY” (King's College London, priority 2018, published 2022).
Entries after “also recorded” stand apart in the source; their conditions may differ.

What was measured:
miR-142-deficient TREGS = assay: Co-culture TREG suppression assay ex vivo after 4 weeks of in vivo cilostamide treatment; set-up: species or system mouse; settings: TREGS isolated ex vivo after 4 weeks of cilostamide treatment
From the text: In vitro Suppression Assay. CD4^+ T cells were isolated from pooled peripheral lymph nodes and spleens of 5-6 week old mice using CD4 microbeads (Miltenyi Biotec). Cells were labeled with fluorochrome-conjugated anti-mouse antibodies to CD4, CD62L, CD44 and CD25 (eBioscience) and sorted using a BD FACSAria II flow cytometric cell sorter (BD Biosciences) to >95% purity for YFP^+ CD4^+ cells (TREGS) and naïve (CD25−, CD62L+, CD44−) CD4+ T cells (TEFFS). An aliquot of the sorted TREG population was stained with Live-Dead and anti-CD25 antibodies, fixed and permeabilised, then stained for FoxP3 and acquired on a flow cytometer (as before) to confirm purity. […] After 72 hours in culture, the cells were stained with fluorochrome-conjugated anti-mouse antibodies to Live/Dead (Life Technologies) and then proliferation of the TEFFS was assessed by flow cytometry based on Cell Trace Violet dilution (excluding YFP+ and dead cells). The numbers of non-proliferating cells (events in the first peak) and precursors of proliferating cells were calculated using standard formulae. Percentage suppression (S) of proliferation was calculated using the formula: […]
In vivo cilostamide treatment. […] The mice were weighed every other day and monitored for signs of disease. […]

TREG^Δ142 mice = assay: In vivo cilostamide treatment of TREG^Δ142 mice (weight, survival); set-up: species or system mouse; settings: 6.4 mg/kg intra-peritoneal cilostamide on alternate days from 8 weeks of age
Experimental: In vivo cilostamide treatment. Littermate TREG^Δ142 and WT mice were treated from 8 weeks of age with alternate day intra-peritoneal injections of either 6.4 mg/kg cilostamide (Sigma) in PBS 10% DMSO, or a control solution of PBS 10% DMSO. The mice were weighed every other day and monitored for signs of disease. A proportion of mice were sacrificed after 4 weeks of treatment and TREGS were isolated directly ex vivo for use in an in vitro co-culture suppression assay (as before). A proportion of mice were kept alive for as long as possible (either until they lost more than 15% of their body weight and had to be euthanised, or until the end of the experiment).

[1] = system: TREGS from WT and TREG^Δ142 mice; assay: In vitro co-culture suppression assay after in vitro cilostamide treatment; assay type: cell-based, mouse
From the text: In vitro Suppression Assay. CD4^+ T cells were isolated from pooled peripheral lymph nodes and spleens of 5-6 week old mice using CD4 microbeads (Miltenyi Biotec). Cells were labeled with fluorochrome-conjugated anti-mouse antibodies to CD4, CD62L, CD44 and CD25 (eBioscience) and sorted using a BD FACSAria II flow cytometric cell sorter (BD Biosciences) to >95% purity for YFP^+ CD4^+ cells (TREGS) and naïve (CD25−, CD62L+, CD44−) CD4+ T cells (TEFFS). An aliquot of the sorted TREG population was stained with Live-Dead and anti-CD25 antibodies, fixed and permeabilised, then stained for FoxP3 and acquired on a flow cytometer (as before) to confirm purity. The TEFFS were labeled with 10 μM Cell Trace Violet (Life Technologies) according to the manufacturer's instructions, washed and then cultured in a 96-well U-bottom plate alone or with TREGS at ratios ranging from (TEFF:TREG) 1:1 to 32:1, in triplicate, in the presence of anti-CD3 and anti-CD28 Dynabeads (Life Technologies) at a bead:cell ratio of 2:1, and RPMI 1640 cell culture medium (Gibco, Life Technologies) supplemented with 10% fetal calf serum, 50 μM 2-Mercapto-ethanol, […] L-glutamine, pyruvate, HEPES, non-essential amino acids and antibiotics at 37° C. 5% CO2. All 4 possible combinations of TREGS and TEFFS from each group were utilised. After 72 hours in culture, the cells were stained with fluorochrome-conjugated anti-mouse antibodies to Live/Dead (Life Technologies) and then proliferation of the TEFFS was assessed by flow cytometry based on Cell Trace Violet dilution (excluding YFP+ and dead cells). The numbers of non-proliferating cells (events in the first peak) and precursors of proliferating cells were calculated using standard formulae. Percentage suppression (S) of proliferation was calculated using the formula: […]
In vitro Cilostamide treatment. […] They were then cultured in the presence of 10 μM cilostamide (Sigma Aldrich), or equivalent PBS/DMSO control for 48 hours before being washed twice, counted and used in an in vitro co-culture suppression assay, as above. […]

CN(C(=O)CCCOc1ccc2[nH]c(=O)ccc2c1)C1CCCCC1 [cilostamide]
Suppressive activity of miR-142-deficient TREGS (miR-142-deficient TREGS): fully restored suppressive activity | Lethal autoimmune disease (weight and survival) (TREG^Δ142 mice): prevented lethal autoimmune disease | TREG suppressive function (suppression of TEFF proliferation) ([1]; TEFFS pre-treated with cilostamide): No rescue of suppressive function | TREG suppressive function (suppression of TEFF proliferation) ([1]; TREG^Δ142 TREGS pre-treated with cilostamide 10 μM prior to co-culture with untreated TEFFS in the absence of cilostamide): restored the suppressive function; also recorded: no significant difference | TREG suppressive capacity ([1]; WT TREGS treated with cilostamide in vitro, compared with WT TREGS): marginal augmentation of ex vivo suppressive capacity
